From patent US10280166B2, “2-(1H-indazol-3-yl)-3H-imidazo[4,5-B]pyridine and therapeutic uses thereof” (Samumed, LLC, priority 2014, dated 2019)

Assays:
[1] = test system: primary human fibroblasts derived from IPF patients (LL29 cells); assay: Inhibition of fibrosis (αSMA) in TGF-β1 treated primary human fibroblasts from IPF patients; assay type: cell-based; conditions: Fibroblast, 96 h, TGF-β1 20 ng/mL, 4 days, % αSMA positive cells
Excerpt: The above synthesized compounds were screened using primary human fibroblasts (derived from IPF patients) treated with TGF-β1 to determine their ability to inhibit the fibrotic process.
Primary human fibroblasts derived from IPF patients (LL29 cells) [^1Xiaoqiu Liu, et.al., “Fibrotic Lung Fibroblasts Show Blunted Inhibition by cAMP Due to Deficient cAMP Response Element-Binding Protein Phosphorylation”, Journal of Pharmacology and Experimental Therapeutics (2005), 315(2), 678-687; ^2Watts, K. L., et.al., “RhoA signaling modulates cyclin D1 expression in human lung fibroblasts; implications for idiopathic pulmonary fibrosis”, Respiratory Research (2006), 7(1), 88] were obtained from American Type Culture Collection (ATCC) and expanded in F12 medium supplemented with 15% Fetal Bovine Serum and Penicillin/Streptomycin.
Each compound was dissolved in DMSO as a 10 mM stock and used to prepare compound source plates. Serial dilution (1:2, 11-point dose-response curves from 10 μM to 1.87 nM) and compound transfer was performed using the ECHO 550 (Labcyte, Sunnyvale, Calif.) into 384-well clear bottom assay plates (Greiner Bio-One) with appropriate DMSO backfill for a final DMSO concentration of 0.1%. LL29 cells were plated at 1,500 cells/well in 80 μl/well F12 medium supplemented with 1% Fetal Bovine Serum. One hour after addition of the cells, TGF-β1 (Peprotech; 20 ng/mL) was added to the plates to induce fibrosis (ref. 1 and 2 above). Wells treated with TGF-β1 and containing DMSO were used as controls. Cells were incubated at 37° C. and 5% CO2 for 4 days. Following incubation for 4 days, SYTOX green nucleic acid stain (Life Technologies [Thermo Fisher Scientific]) was added to the wells at a final concentration of 1 uM and incubated at room temperature for 30 min. Cells were then fixed using 4% formaldehyde (Electron Microscopy Sciences), washed 3 times with PBS followed by blocking and permeabilization using 3% Bovine Serum Albumin (BSA; Sigma) and 0.3% Triton X-100 (Sigma) in PBS. Cells were then stained with antibody specific to α-smooth muscle actin (αSMA; Abcam) (ref. 1 and 2 above) in 3% Bovine Serum Albumin (BSA; Sigma) and 0.3% Triton X-100 (Sigma) in PBS, and incubated overnight at 4° C. Cells were then washed 3 times with PBS, followed by incubation with Alexa Flor-647 conjugated secondary antibody (Life Technologies [Thermo Fisher Scientific]) and DAPI at room temperature for 1 hour. Cells were then washed 3 times with PBS and plates were sealed for imaging. αSMA staining was imaged by excitation at 630 nm and emission at 665 nm and quantified using the Compartmental Analysis program on the CellInsight CX5 (Thermo Scientific). Dead or apoptotic cells were excluded from analysis based on positive SYTOX green staining. % of total cells positive for αSMA were counted in each well and normalized to the average of 11 wells treated with TGF-β1 on the same plate using Dotmatics' Studies Software. The normalized averages (fold change over untreated) of 3 replicate wells for each compound concentration were used to create dose-responses curves and EC50 values were calculated using non-linear regression curve fit in the Dotmatics' Studies Software. The EC50 values are reported.

[2] = test system: Wnt activity (SW480 colon carcinoma cells stably expressing the Sp5-Luc reporter gene); assay: Sp5-Luc reporter gene screening assay for Wnt activity in SW480 cells; assay type: cell-based; conditions: Homo sapiens, 42 h incubation, luminescence
Excerpt: The screening assay for Wnt activity is described as follows. Reporter cell lines can be generated by stably transducing cancer cell lines (e.g., colon cancer) or primary cells (e.g., IEC-6 intestinal cells) with a lentiviral construct that includes a Wnt-responsive promoter driving expression of the firefly luciferase gene.
SW480 colon carcinoma cells were transduced with a lentiviral vector expressing luciferase with a human Sp5 promoter consisting of a sequence of eight TCF/LEF binding sites. SW480 cells stably expressing the Sp5-Luc reporter gene and a hygromycin resistance gene were selected by treatment with 150 μg/ml of hygromycin for 7 days. These stably transduced SW480 cells were expanded in cell culture and used for all further screening activities. For Sp5-Luc reporter gene assays, the cells were plated at 10,000 cells/well in 96-well plates with growth medium containing 10% fetal calf serum and incubated overnight at 37° C. and 5% CO2. Each compound was dissolved in DMSO as a 10 mM stock in standard j-vials and used to prepare compound source plates in dose-response format with 3-fold serial dilutions and a 10 mM top concentration. Compound transfer from serially diluted source plates to assay plates containing the cells was accomplished using a pintool (Multimek 96, Beckman equipped with V&P Scientific FP1S50H pins) based liquid handling protocol. This protocol used a slotted pin to transfer 50 nl of compound from a source plate well to an assay plate well containing 50 μl of cells in growth medium. […] Control wells received 50 nl of DMSO treatment for normalization and calculating IC50 values. The treated cells were incubated at 37° C. and 5% CO2 for an additional forty-two hours. Following incubation, the growth medium was removed and 50 μl of BrightGlo luminescence reagent (Promega) was added to each well of the 96-well assay plates. The plates were placed on an orbital shaker for 5 min and then luminescence was quantified on the Victor3 (Perkin Elmer) plate reader. Readings were normalized to DMSO only treated cells, and normalized activities were utilized for IC50 calculations using the dose-response log (inhibitor) vs. response—variable slope (four parameters) nonlinear regression feature available in GraphPad Prism 5.0 or 6.0.

## CCC(=O)Nc1cncc(-c2ccc3[nH]nc(-c4nc5c(-c6cccc(F)c6)ccnc5[nH]4)c3c2)c1 [Compound 1, N-(5-(3-(7-(3-Fluorophenyl)-3H-imidazo[4,5-b]pyridin-2-yl)-1H-indazol-5-yl)pyridin-3-yl)propionamide]
[1]
  EC50: 0.015 nM
[2]
  IC50: < 1 nM

## CC(C)C(=O)Nc1cncc(-c2ccc3[nH]nc(-c4nc5c(-c6cccc(F)c6)ccnc5[nH]4)c3c2)c1 [Compound 9]
[1]
  EC50: 9.99 nM
[2]
  IC50: 3 nM

## CN(C)Cc1cncc(-c2ccc3[nH]nc(-c4nc5c(-c6cccc(F)c6)ccnc5[nH]4)c3c2)c1 [Compound 13, 1-(5-(3-(7-(3 -Fluorophenyl)-3H-imidazo[4,5-b]pyridin-2-yl)-1H-indazol-5-yl)pyridin-3-yl)-N,N-dimethylmethanamine]
[1]
  EC50: 1.15 nM
[2]
  IC50: 116 nM

## O=C(Nc1cncc(-c2ccc3[nH]nc(-c4nc5c(-c6cccc(F)c6)ccnc5[nH]4)c3c2)c1)C1CC1 [Compound 19, N-(5-(3-(7-(3-Fluorophenyl)-3H-imidazo[4,5-b]pyridin-2-yl)-1H-indazol-5-yl)pyridin-3-yl)cyclopropanecarboxamide]
[1]
  EC50: 0.043 nM
[2]
  IC50: 1 nM

## O=C(Nc1cncc(-c2ccc3[nH]nc(-c4nc5c(-c6cccc(F)c6)ccnc5[nH]4)c3c2)c1)C1CCCC1 [Compound 21, N-(5-(3-(7-(3-Fluorophenyl)-3H-imidazo[4,5-b]pyridin-2-yl)-1H-indazol-5-yl)pyridin-3-yl)cyclopentanecarboxamide]
[1]
  EC50: 0.027 nM
[2]
  IC50: 9.1 nM

## CC(C)(C)C(=O)Nc1cncc(-c2ccc3[nH]nc(-c4nc5c(-c6ccc(F)cc6)ccnc5[nH]4)c3c2)c1 [Compound 34, N-(5-(3-(7-(4-Fluorophenyl)-3H-imidazo[4,5-b]pyridin-2-yl)-1H-indazol-5-yl)pyridin-3-yl)pivalamide]
[1]
  EC50: 0.334 nM
[2]
  IC50: 19 nM

## Fc1ccc(-c2ccnc3[nH]c(-c4n[nH]c5ccc(-c6cncc(CN7CCCC7)c6)cc45)nc23)cc1 [Compound 40, 7-(4-Fluorophenyl)-2-(5-(5-(pyrrolidin-1-ylmethyl)pyridin-3-yl)-1H-indazol-3-yl)-3H-imidazo[4,5-b]pyridine]
[1]
  EC50: 0.009 nM
[2]
  IC50: 4030 nM

## O=C(Nc1cncc(-c2ccc3[nH]nc(-c4nc5c(-c6ccc(F)cc6)ccnc5[nH]4)c3c2)c1)C1CCC1 [Compound 46, N-(5-(3-(7-(4-Fluorophenyl)-3H-imidazo[4,5-b]pyridin-2-yl)-1H-indazol-5-yl)pyridin-3-yl)cyclobutanecarboxamide]
[1]
  EC50: 0.08 nM
[2]
  IC50: 2 nM

## Fc1ccc(-c2ccnc3[nH]c(-c4n[nH]c5ccc(-c6cncnc6)cc45)nc23)cc1 [Compound 52, 7-(4-Fluorophenyl)-2-(5-(pyrimidin-5-yl)-1H-indazol-3-yl)-3H-imidazo[4,5-b]pyridine]
[1]
  EC50: 1.25 nM
[2]
  IC50: 25.6 nM

## CN(C)c1cncc(-c2ccc3[nH]nc(-c4nc5c(-c6ccccc6F)ccnc5[nH]4)c3c2)c1 [Compound 59, 5-(3-(7-(2-Fluorophenyl)-3H-imidazo[4,5-b]pyridin-2-yl)-1H-indazol-5-yl)-N,N-dimethylpyridin-3-amine]
[1]
  EC50: 0.009 nM
[2]
  IC50: 31.9 nM

## CC(C)C(=O)Nc1cncc(-c2ccc3[nH]nc(-c4nc5c(-c6ccccc6F)ccnc5[nH]4)c3c2)c1 [Compound 61, N-(5-(3-(7-(2-Fluorophenyl)-3H-imidazo[4,5-b]pyridin-2-yl)-1H-indazol-5-yl)pyridin-3-yl)isobutyramide]
[1]
  EC50: 0.009 nM
[2]
  IC50: 6 nM

## O=C(Nc1cncc(-c2ccc3[nH]nc(-c4nc5c(-c6ccccc6F)ccnc5[nH]4)c3c2)c1)C1CC1 [Compound 71, N-(5-(3-(7-(2-Fluorophenyl)-3H-imidazo[4,5-b]pyridin-2-yl)-1H-indazol-5-yl)pyridin-3-yl)cyclopropanecarboxamide]
[1]
  EC50: 9.99 nM
[2]
  IC50: 11.1 nM

## O=C(Nc1cncc(-c2ccc3[nH]nc(-c4nc5c(-c6ccccc6F)ccnc5[nH]4)c3c2)c1)C1CCCC1 [Compound 73, N-(5-(3-(7-(2-Fluorophenyl)-3H-imidazo[4,5-b]pyridin-2-yl)-1H-indazol-5-yl)pyridin-3-yl)cyclopentanecarboxamide]
[1]
  EC50: 0.379 nM
[2]
  IC50: 13 nM

## Nc1cncc(-c2ccc3[nH]nc(-c4nc5c(-c6cccnc6)ccnc5[nH]4)c3c2)c1 [Compound 81, 5-(3-(7-(Pyridin-3-yl)-3H-imidazo[4,5-b]pyridin-2-yl)-1H-indazol-5-yl)pyridin-3-amine]
[1]
  EC50: 0.009 nM
[2]
  IC50: 5.8 nM

## CC(C)Nc1cncc(-c2ccc3[nH]nc(-c4nc5c(-c6cccnc6)ccnc5[nH]4)c3c2)c1 [Compound 90, N-isopropyl-5-(3-(7-(pyridin-3-yl)-3H-imidazo[4,5-b]pyridin-2-yl)-1H-indazol-5-yl)pyridin-3-amine]
[1]
  EC50: 0.078 nM
[2]
  IC50: 12 nM

## c1cncc(-c2ccnc3[nH]c(-c4n[nH]c5ccc(-c6cncc(CN7CCCCC7)c6)cc45)nc23)c1 [Compound 93, 2-(5-(5-(Piperidin-1-ylmethyl)pyridin-3-yl)-1H-indazol-3-yl)-7-(pyridin-3-yl)-3H-imidazo[4,5-b]pyridine]
[1]
  EC50: 0.016 nM
[2]
  IC50: > 10000 nM

## CN(C)CCOc1cncc(-c2ccc3[nH]nc(-c4nc5c(-c6cccc(F)c6)ccnc5[nH]4)c3c2)c1 [Compound 1883, 2-((5-(3-(7-(3-Fluorophenyl)-3H-imidazo[4,5-b]pyridin-2-yl)-1H-indazol-5-yl)pyridin-3-yl)oxy)-N,N-dimethylethanamine]
[1]
  EC50: 0.095 nM

## CC(C)CC(=O)Nc1cncc(-c2ccc3[nH]nc(-c4nc5c(-c6cc(F)cc(OCCN7CCCC7)c6)ccnc5[nH]4)c3c2)c1 [Compound 2242, N-(5-(3-(7-(3-Fluoro-5-(2-(pyrrolidin-1-yl)ethoxy)phenyl)-3H-imidazo[4,5-b]pyridin-2-yl)-1H-indazol-5-yl)pyridin-3-yl)-3-methylbutanamide]
[2]
  IC50: 440 nM

## CC(C)CC(=O)Nc1cncc(-c2ccc3[nH]nc(-c4nc5c(-c6cc(O)cc(F)c6)ccnc5[nH]4)c3c2)c1 [Compound 2286, N-(5-(3-(7-(3-Fluoro-5-hydroxyphenyl)-3H-imidazo[4,5-b]pyridin-2-yl)-1H-indazol-5-yl)pyridin-3-yl)-3-methylbutanamide]
[2]
  IC50: 55 nM

## COc1cc(F)cc(-c2ccnc3[nH]c(-c4n[nH]c5ccc(-c6cncc(NC(=O)CC(C)C)c6)cc45)nc23)c1 [Compound 2330, N-(5-(3-(7-(3-Fluoro-5-methoxyphenyl)-3H-imidazo[4,5-b]pyridin-2-yl)-1H-indazol-5-yl)pyridin-3-yl)-3-methylbutanamide]
[2]
  IC50: 20 nM
